# Experimental data: patent US20050112573A1, “Method of detecting toxic substance” (priority 2001, published 2005)
# System: yeast genes (level of expressed mRNA)
# Assay: DNA chip analysis of expressed mRNA of yeast genes after 2 h culture with a toxic chemical substance
# Type: cell-based, Saccharomyces cerevisiae S288C
# Details: for The level of expressed mRNA in the presence of chemical substance/: ratio to no chemical; for The level of expressed mRNA in the presence of chemical substance/ (ratio to absence): transport facilitation protein gene; for The level of expressed mRNA in the presence of chemical substance/ (ratio to absence of chemical substance): stress protein genes, DNA chip; for The level of expressed mRNA in the presence of chemical substance/ in its absence, gene YPR184W: yeast gene YPR184W
# Outline: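 S. cerevisiae S288C grown at 25° C in YPD; toxicant added at log phase at growth-inhibitory, non-lethal levels for 2 h, untreated cells as control. Poly(A) mRNA reverse-transcribed with Cy3/Cy5-dUTP, hybridized to whole-genome chip at 65° C >12 h; value is fluorescence ratio versus untreated.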
substance,measurement,setting,value
sodium dodecylbenzosulfonate [(17)],The level of expressed mRNA in the presence of chemical substance/,yeast gene YNL240C,0.8
same,The level of expressed mRNA in the presence of chemical substance/in the absence of chemical substance,yeast gene YNL241C,1.0
same,The level of expressed mRNA in the presence of chemical substance/ (ratio to absence),yeast gene YNL259C,2.6
same,The level of expressed mRNA in the presence of chemical substance/,yeast gene YNL260C,0.9
same,The level of expressed mRNA in the presence of chemical substance/in the absence of chemical substance,yeast gene YNL274C,1.4
same,The level of expressed mRNA in the presence of chemical substance/,yeast gene YNL285W,1.2
same,The level of expressed mRNA in the presence of chemical substance/,yeast gene YNL293W,1.0
same,The level of expressed mRNA in the presence of chemical substance/in the absence of chemical substance,yeast gene YNL331C,1.7
same,The level of expressed mRNA in the presence of chemical substance/in the absence of chemical substance,yeast gene YNL332W,1.0
same,The level of expressed mRNA in the presence of chemical substance/The level of expressed mRNA in the absence of chemical substance,yeast gene YNL333W,1.4
same,The level of expressed mRNA in the presence of chemical substance/The level of expressed mRNA in the absence of chemical substance,yeast gene YNR010W,1.7
same,The level of expressed mRNA in the presence of chemical substance/,yeast gene YNR061C,1.6
same,The level of expressed mRNA in the presence of chemical substance/The level of expressed mRNA in the absence of chemical substance,yeast gene YNR069C,1.1
same,"The level of expressed mRNA in the presence of chemical substance/ (in its absence), gene YNR072W","yeast gene YNR072W, ratio of DNA chip fluorescence intensity to that without chemical substance",1.3
same,The level of expressed mRNA in the presence of chemical substance/,yeast gene YNR074C,0.9
same,The level of expressed mRNA in the presence of chemical substance/ (ratio to absence of chemical substance),yeast gene YNR076W,1.5
same,The level of expressed mRNA in the presence of chemical substance/The level of expressed mRNA in the absence of chemical substance,yeast gene YOL013C,1.1
same,The level of expressed mRNA in the presence of chemical substance/,yeast gene YOL084W,1.3
same,"The level of expressed mRNA in the presence of chemical substance/ (ratio to absence), gene YOL096C","yeast gene YOL096C, mitochondria-located protein genes, 2 h culture with chemical",1.2
same,"The level of expressed mRNA in the presence of chemical substance/ (in its absence), gene YOL096C","yeast gene YOL096C, ratio of DNA chip fluorescence intensity to that without chemical substance",1.2
same,"The level of expressed mRNA in the presence of chemical substance/ (in its absence), gene YOL108C","yeast gene YOL108C, ratio of DNA chip fluorescence intensity to that without chemical substance",1.5
same,"The level of expressed mRNA in the presence of chemical substance/ (in its absence), gene YOL116W","yeast gene YOL116W, ratio of DNA chip fluorescence intensity to that without chemical substance",1.1
same,The level of expressed mRNA in the presence of chemical substance/ (ratio to absence),yeast gene YOL119C,1.4
same,The level of expressed mRNA in the presence of chemical substance/in the absence of chemical substance,yeast gene YOL151W,4.0
same,The level of expressed mRNA in the presence of chemical substance/ (ratio to absence),yeast gene YOL158C,1.4
same,The level of expressed mRNA in the presence of chemical substance/,yeast gene YOL159C,2.0
same,The level of expressed mRNA in the presence of chemical substance/ (ratio to absence of chemical substance),yeast gene YOL161C,1.1
same,The level of expressed mRNA in the presence of chemical substance/ (ratio to absence),yeast gene YOL163W,0.8
same,The level of expressed mRNA in the presence of chemical substance/The level of expressed mRNA in the absence of chemical substance,yeast gene YOL164W,1.1
same,The level of expressed mRNA in the presence of chemical substance/in the absence of chemical substance,yeast gene YOL165C,1.6
same,The level of expressed mRNA in the presence of chemical substance/,yeast gene YOR007C,1.2
same,The level of expressed mRNA in the presence of chemical substance/ (ratio to absence of chemical substance),yeast gene YOR008C,0.8
same,The level of expressed mRNA in the presence of chemical substance/ (ratio to absence of chemical substance),yeast gene YOR009W,0.9
same,The level of expressed mRNA in the presence of chemical substance/ (ratio to absence of chemical substance),yeast gene YOR010C,1.4
same,The level of expressed mRNA in the presence of chemical substance/ (ratio to absence),yeast gene YOR035C,1.6
same,The level of expressed mRNA in the presence of chemical substance/The level of expressed mRNA in the absence of chemical substance,yeast gene YOR036W,1.6
same,"The level of expressed mRNA in the presence of chemical substance/ (in its absence), gene YOR103C","yeast gene YOR103C, ratio of DNA chip fluorescence intensity to that without chemical substance",1.1
same,The level of expressed mRNA in the presence of chemical substance/The level of expressed mRNA in the absence of chemical substance,yeast gene YOR117W,1.4
same,The level of expressed mRNA in the presence of chemical substance/in the absence of chemical substance,yeast gene YOR120W,1.3
same,The level of expressed mRNA in the presence of chemical substance/The level of expressed mRNA in the absence of chemical substance,yeast gene YOR124C,1.0
same,The level of expressed mRNA in the presence of chemical substance/ (ratio to absence),yeast gene YOR130C,1.5
same,The level of expressed mRNA in the presence of chemical substance/The level of expressed mRNA in the absence of chemical substance,yeast gene YOR132W,1.2
same,The level of expressed mRNA in the presence of chemical substance/in the absence of chemical substance,yeast gene YOR153W,2.5
same,The level of expressed mRNA in the presence of chemical substance/The level of expressed mRNA in the absence of chemical substance,yeast gene YOR157C,1.2
same,"The level of expressed mRNA in the presence of chemical substance/ (in its absence), gene YOR180C","yeast gene YOR180C, ratio of DNA chip fluorescence intensity to that without chemical substance",0.9
same,The level of expressed mRNA in the presence of chemical substance/The level of expressed mRNA in the absence of chemical substance,yeast gene YOR181W,1.1
same,The level of expressed mRNA in the presence of chemical substance/The level of expressed mRNA in the absence of chemical substance,yeast gene YOR185C,0.9
same,The level of expressed mRNA in the presence of chemical substance/The level of expressed mRNA in the absence of chemical substance,yeast gene YOR198C,1.1
same,The level of expressed mRNA in the presence of chemical substance/,yeast gene YOR220W,3.5
same,The level of expressed mRNA in the presence of chemical substance/,yeast gene YOR225W,0.9
same,The level of expressed mRNA in the presence of chemical substance/in the absence of chemical substance,yeast gene YOR226C,1.0
same,The level of expressed mRNA in the presence of chemical substance/,yeast gene YOR228C,1.0
same,"The level of expressed mRNA in the presence of chemical substance/ (in its absence), gene YOR251C","yeast gene YOR251C, ratio of DNA chip fluorescence intensity to that without chemical substance",0.9
same,The level of expressed mRNA in the presence of chemical substance/,yeast gene YOR255W,1.0
same,The level of expressed mRNA in the presence of chemical substance/The level of expressed mRNA in the absence of chemical substance,yeast gene YOR259C,0.9
same,The level of expressed mRNA in the presence of chemical substance/The level of expressed mRNA in the absence of chemical substance,yeast gene YOR261C,1.0
same,The level of expressed mRNA in the presence of chemical substance/ (ratio to absence),yeast gene YOR270C,0.9
same,The level of expressed mRNA in the presence of chemical substance/ (ratio to absence),yeast gene YOR273C,3.2
same,The level of expressed mRNA in the presence of chemical substance/The level of expressed mRNA in the absence of chemical substance,yeast gene YOR288C,1.5
same,The level of expressed mRNA in the presence of chemical substance/in the absence of chemical substance,yeast gene YOR303W,1.2
same,"The level of expressed mRNA in the presence of chemical substance/ (ratio to absence), gene YOR316C","yeast gene YOR316C, mitochondria-located protein genes, 2 h culture with chemical",0.8
same,The level of expressed mRNA in the presence of chemical substance/ (ratio to absence),yeast gene YOR332W,1.3
same,"The level of expressed mRNA in the presence of chemical substance/ (in its absence), gene YOR348C","yeast gene YOR348C, ratio of DNA chip fluorescence intensity to that without chemical substance",0.9
same,The level of expressed mRNA in the presence of chemical substance/The level of expressed mRNA in the absence of chemical substance,yeast gene YOR355W,0.8
same,"The level of expressed mRNA in the presence of chemical substance/ (in its absence), gene YOR363C","yeast gene YOR363C, ratio of DNA chip fluorescence intensity to that without chemical substance",1.3
same,The level of expressed mRNA in the presence of chemical substance/The level of expressed mRNA in the absence of chemical substance,yeast gene YOR383C,1.4
same,"The level of expressed mRNA in the presence of chemical substance/ (ratio to absence), gene YPL040C","yeast gene YPL040C, mitochondria-located protein genes, 2 h culture with chemical",0.8
same,The level of expressed mRNA in the presence of chemical substance/ (ratio to absence of chemical substance),yeast gene YPL059W,1.8
same,The level of expressed mRNA in the presence of chemical substance/in the absence of chemical substance,yeast gene YPL088W,9.1
same,The level of expressed mRNA in the presence of chemical substance/The level of expressed mRNA in the absence of chemical substance,yeast gene YPL089C,1.5
same,The level of expressed mRNA in the presence of chemical substance/The level of expressed mRNA in the absence of chemical substance,yeast gene YPL109C,1.2
same,"The level of expressed mRNA in the presence of chemical substance/ (ratio to absence), gene YPL134C","yeast gene YPL134C, mitochondria-located protein genes, 2 h culture with chemical",1.3
same,The level of expressed mRNA in the presence of chemical substance/ (ratio to absence of chemical substance),yeast gene YPL140C,0.9
same,The level of expressed mRNA in the presence of chemical substance/ (ratio to absence),yeast gene YPL147W,1.5
same,"The level of expressed mRNA in the presence of chemical substance/ (in its absence), gene YPL148C","yeast gene YPL148C, ratio of DNA chip fluorescence intensity to that without chemical substance",1.0
same,The level of expressed mRNA in the presence of chemical substance/The level of expressed mRNA in the absence of chemical substance,yeast gene YPL149W,2.2
same,The level of expressed mRNA in the presence of chemical substance/The level of expressed mRNA in the absence of chemical substance,yeast gene YPL154C,1.6
same,The level of expressed mRNA in the presence of chemical substance/,yeast gene YPL166W,1.1
same,The level of expressed mRNA in the presence of chemical substance/ (ratio to absence of chemical substance),yeast gene YPL194W,1.0
same,The level of expressed mRNA in the presence of chemical substance/,yeast gene YPL202C,1.1
same,The level of expressed mRNA in the presence of chemical substance/ (ratio to absence),yeast gene YPL224C,1.3
same,The level of expressed mRNA in the presence of chemical substance/ (ratio to absence),yeast gene YPL265W,0.5
same,The level of expressed mRNA in the presence of chemical substance/ (ratio to absence),yeast gene YPL271W,1.2
same,The level of expressed mRNA in the presence of chemical substance/ (ratio to absence),yeast gene YPL274W,0.7
same,The level of expressed mRNA in the presence of chemical substance/ (ratio to absence of chemical substance),yeast gene YPR005C,1.0
same,The level of expressed mRNA in the presence of chemical substance/,yeast gene YPR077C,1.4
same,The level of expressed mRNA in the presence of chemical substance/The level of expressed mRNA in the absence of chemical substance,yeast gene YPR103W,1.2
same,The level of expressed mRNA in the presence of chemical substance/The level of expressed mRNA in the absence of chemical substance,yeast gene YPR108W,1.0
same,The level of expressed mRNA in the presence of chemical substance/ (ratio to absence),yeast gene YPR124W,1.0
same,The level of expressed mRNA in the presence of chemical substance/,yeast gene YPR147C,1.1
same,"The level of expressed mRNA in the presence of chemical substance/ (in its absence), gene YPR165W","yeast gene YPR165W, ratio of DNA chip fluorescence intensity to that without chemical substance",2.3
same,The level of expressed mRNA in the presence of chemical substance/in the absence of chemical substance,yeast gene YPR167C,1.7
same,"The level of expressed mRNA in the presence of chemical substance/ in its absence, gene YPR184W","energy system protein genes, 2 h culture with the chemical, ratio to control without chemical",1.0
same,"The level of expressed mRNA in the presence of chemical substance/ in its absence, gene YPR184W",ratio of DNA chip fluorescence intensity to that without chemical substance,1.0
same,The level of expressed mRNA in the presence of chemical substance/ (ratio to absence),yeast gene YPR201W,0.8
